The values that follow are results of earlier work, collected in patent US20130236544A1, “STABLE PHARMACEUTICAL COMPOSITIONS OF FESOTERODINE” (DR. REDDY'S LABORATORIES LTD., priority 2012, published 2013).

Where a name gives a salt, the structure may show the parent alone.

In the case of `CC(C)C(=O)Oc1ccc(CO)cc1[C@H](CCN(C(C)C)C(C)C)c1ccccc1` [Fesoterodine fumarate, isobutyric acid 2-((R)-3-diisopropylammonium-1-phenylpropyl)-4-(hydroxymethyl) phenyl ester hydrogen fumarate], the solubility in water entry was “freely soluble in water”.
